The target of this test is Prostaglandin E2 receptor EP2 subtype (Homo sapiens) (UniProt P43116). Nature of the test: EP2 receptor modulators, dose response, cell-based, human EP2, PGE2 EC50 shift (AID 1421). The note with it: EP2-expressing cells, PGE2 EC50 shift by compound; for PGE2 EC50 with compound: measured here: PGE2 EC50 at 6.7 uM compound.

Activity calls are given as the source filed them. The rule behind the calls is not given here.

Sequence of Prostaglandin E2 receptor EP2 subtype (Homo sapiens) (P43116 whole entry, looked up): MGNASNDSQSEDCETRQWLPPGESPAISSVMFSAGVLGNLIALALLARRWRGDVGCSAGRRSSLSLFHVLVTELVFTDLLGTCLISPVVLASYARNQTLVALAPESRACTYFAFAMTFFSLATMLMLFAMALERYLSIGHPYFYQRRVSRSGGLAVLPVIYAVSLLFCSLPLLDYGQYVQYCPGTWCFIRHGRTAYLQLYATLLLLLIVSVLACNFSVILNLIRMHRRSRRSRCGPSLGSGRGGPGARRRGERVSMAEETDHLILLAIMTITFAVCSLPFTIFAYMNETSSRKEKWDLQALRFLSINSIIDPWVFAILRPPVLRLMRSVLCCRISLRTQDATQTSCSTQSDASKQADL

On to `CCOC(=O)c1ccccc1NC(=O)CSc1ccccc1`, for which the PGE2 EC50 with compound stood at 1.07 nM.

Regarding `O=C(COc1ccc(Br)cc1)Nc1ccc(-c2nnc(-c3ccco3)o2)cc1`, the PGE2 EC50 with compound was 0.9 nM.

`O=C(O)c1ccc(C(=O)O)c(C(=O)Nc2ccc3c(c2)Cc2ccccc2-3)c1`: the PGE2 EC50 with compound turned out to be 2.77 nM. On the same count and under the same terms, for `CC(=O)O[C@@H]1c2c(ccc3ccc(=O)oc23)OC(C)(C)[C@@H]1OC(=O)CC(C)C` the value was 0.92 nM. As to `Cc1ccc(C(C)C)c(OCc2ccc(-c3nnco3)cc2)c1`, the PGE2 EC50 with compound is 2.51 nM. For `Cn1c(/C=C/N(Cc2ccccc2)c2ccccc2)c([N+](=O)[O-])c(=O)n(C)c1=O`, the PGE2 EC50 with compound came to 1.21 nM. The same measure, in the same setting: for `CC1(C)C2CCC1(C)C(OC(=O)CC(=O)O)C2` (stereo not given) the value was 0.72 nM; for `COc1ccc(C(=O)/C(=C/O)N=Nc2ccc(F)cc2)cc1`, 1 nM; for `COC(=O)C1=C(C)N(C)C(C)=C(C(=O)OC)C1c1cccc(Br)c1`, 0.97 nM. Same read-out and setting: for `Cc1cc(C)c(S(=O)(=O)c2ccccc2)c(OC(=O)c2cc(F)c(F)cc2Cl)n1` the value was 0.91 nM; for `C=CCSc1nc2ccsc2c(=O)n1-c1ccccc1`, 2.54 nM.

In the case of `CCC(c1nnnn1Cc1ccco1)N(Cc1cc2cc(C)cc(C)c2[nH]c1=O)CC1CCCO1` (stereo not given), the PGE2 EC50 with compound came to 1.56 nM. Same read-out and setting: for `CCOC(=O)c1ccccc1NC(=O)CSc1ncc(C(=O)OCC)c(N)n1` the value was 0.96 nM; for `CNC[C@H](O)c1ccc(O)c(O)c1`, 0.65 nM; for `O=c1nc(-c2ccccc2)cc(-c2ccccc2)[nH]1`, 2.21 nM.

Turning to `CC1CN(c2nc3ccccc3cc2-c2ccccc2)CC(C)O1` (stereo not given), the PGE2 EC50 with compound was determined as 0.53 nM. In the case of `CCOc1cc(-c2noc(-c3ccncc3)n2)cc(Br)c1OC`, the outcome was active and the PGE2 EC50 with compound was 0.84 nM. Regarding `COc1cc(-c2noc(-c3cccc(Cl)c3)n2)cc(OC)c1OC`, the PGE2 EC50 with compound was determined as 1.11 nM. Still for that read-out and setting: to `CCOC(=O)c1c(-c2ccc(C)cc2)csc1NC(=O)c1ccc(N2C(=O)CCC2=O)cc1` belongs 1.5 nM; to `O=C(O)c1oc(C(=O)O)c(C(=O)O)c1C(=O)O`, 1.51 nM. Same read-out and setting: for `c1ccc(-c2nn3c(-c4ccccc4)nnc3s2)cc1` the value was 0.84 nM. The same measure, in the same setting: for `C=C[C@@](C)(O)CCC1C(=C)C[C@H](O)C2C(C)(C)CCCC12C` (stereo not given in full) the value was 2.91 nM; for `O=c1c2ccccc2c(-c2ccccc2)nn1Cc1ccccc1`, 2.8 nM. `CCCOC(=O)c1ccc(NC(=O)c2cn(CC)c3nc(C)ccc3c2=O)cc1`: the PGE2 EC50 with compound turned out to be 1.57 nM. Same read-out and setting: to `Cc1cc2ccccn2c1C(=O)c1ccc(Cl)cc1` belongs 1.24 nM. The same measure, in the same setting: for `Clc1ccc(Cn2c(/C=C/c3ccco3)nc3ccccc32)cc1` the value was 1.38 nM.

As for `CCOC(=O)c1c(NC(=O)c2ccoc2C)sc(C)c1C`, the result was active and the PGE2 EC50 with compound was 0.94 nM. On to `Cc1ccc(S(=O)(=O)n2c3ccc(F)cc3c3nc(C)sc32)cc1`, for which the PGE2 EC50 with compound amounted to 0.84 nM. The same measure, in the same setting: for `CC1CCCCN1C(=O)/C(=C\c1ccccc1)c1ccccc1` (stereo not given) the value was 2.61 nM. On to `N#Cc1cn(-c2ccccc2)nc1-c1cc2ccccc2oc1=O`, for which the outcome was active and the PGE2 EC50 with compound turned out to be 0.99 nM. With `CC1=C(/C=C/C(C)=C/C=C/C(C)=C/C(=O)O)C(C)(C)CCC1`, the PGE2 EC50 with compound was determined as 1.19 nM.

As for `O=C1CC(O)(c2ccccc2)C(c2ccccc2)=C1c1ccccc1` (stereo not given), the PGE2 EC50 with compound came to 0.87 nM. As to `CCN1CCN(c2c(Cl)cccc2NC(=O)c2ccc(Br)o2)CC1`, the PGE2 EC50 with compound came to 2.53 nM.

For `N#Cc1sc2nc(N3CCCCC3)c3c(c2c1N)CCCC3`, the PGE2 EC50 with compound stood at 1.33 nM.

Consider `C=CCNC(=S)NNc1nc(Nc2ccccc2)nc(N2CCCCC2)n1`, for which the PGE2 EC50 with compound is 1.42 nM.

With `Cc1ccc2oc(=O)n(Cc3ccccc3OC(C)C)c2c1`, the PGE2 EC50 with compound is 0.64 nM.

As to `COC(=O)c1ccc(-c2ccco2)n1Cc1ccccc1Cl`, the PGE2 EC50 with compound came to 1.03 nM. For `COc1ccc(C)c(Cn2c(-c3nonc3N)nc3ccccc32)c1`, the PGE2 EC50 with compound amounted to 0.86 nM. On the same count and under the same terms, for `CCOC(=O)c1c(NC(=O)c2ccc(N3C(=O)[C@@H]4[C@H](C3=O)[C@H]3C=C[C@@H]4C3)cc2)sc2c1CC(C)CC2` (stereo not given in full) the value was 1.22 nM. Same read-out and setting: for `O=C(O)CSc1cc(-c2ccccc2)nc2ccccc12` the value was 2.55 nM.

Consider `COc1ccc(-n2c(-c3cccc(OC)c3)nc(=S)c3c2CCCC3)cc1`, for which the PGE2 EC50 with compound is 2.89 nM. On the same count and under the same terms, to `Cc1cc(O)ccc1C1(c2ccc(O)cc2C)OC(=O)c2ccccc21` belongs 0.55 nM; to `Cc1cccc(/C=N/Nc2cc(N3CCOCC3)nc(N3CCOCC3)n2)c1`, 1.08 nM; to `O=C(Nc1ccccc1Oc1ccccc1)c1cnccn1`, 0.78 nM. The same measure, in the same setting: to `COC(=O)CSc1nc2c(c(C3CC=CCC3)c1C#N)CCC2` (stereo not given) belongs 1.26 nM; to `COC[C@H]1OC(=O)c2coc3c2[C@@]1(C)C1=C(C3=O)C2CCC(=O)[C@@]2(C)C[C@H]1OC(C)=O` (stereo not given in full), 0.84 nM. On the same count and under the same terms, for `Cc1ccc(-c2nn3c(C)nnc3s2)cc1NCc1c(F)cccc1Cl` the value was 0.91 nM; for `Brc1ccccc1Cn1c(-c2cscn2)nc2ccccc21`, 0.94 nM. In the case of `C=CCSc1nc2sc(C)c(C)c2c(=O)n1CC=C`, the result was active and the PGE2 EC50 with compound turned out to be 0.83 nM.

As for `COc1ccc(-c2nnc(N3CCC(C)CC3)c3ccccc23)cc1`, the PGE2 EC50 with compound is 1.15 nM.

Regarding `CCCn1c(SCC(=O)Nc2sc(C)c(C)c2C(=O)OCC)nc2c1c(=O)n(C)c(=O)n2C`, the PGE2 EC50 with compound is 1.35 nM. On to `Cn1c(=O)[nH]c(=O)c2c1nc(N1CCCCCC1)n2Cc1cccc2ccccc12`, for which the PGE2 EC50 with compound turned out to be 2.64 nM. `C=CCSc1nc2ccccc2n1S(=O)(=O)c1ccc(Cl)cc1`: the outcome was active and the PGE2 EC50 with compound amounted to 0.85 nM. Take `O=C(/C(=C/O)N=Nc1ccccc1)c1cccs1`: the PGE2 EC50 with compound was 1.19 nM.

For the molecule `Cc1cccc(Cn2c(N3CCN(c4ccccc4)CC3)nc3c2c(=O)n(C)c(=O)n3C)c1`, the PGE2 EC50 with compound turned out to be 0.94 nM. With `O=C(Cc1ccc(F)cc1)Nc1ccccc1Sc1ccccc1`, the PGE2 EC50 with compound is 0.7 nM. For `CCOc1ccccc1NC1c2ccccc2C(=O)N1c1ccc(C)cn1` (stereo not given), the outcome was active and the PGE2 EC50 with compound came to 0.89 nM.

As to `O=c1cc2c(nn1Cc1c(Cl)cccc1Cl)-c1ccccc1CC2`, the PGE2 EC50 with compound was 0.79 nM. Turning to `CN=C1CC(SC)=C1c1ccc(C)cc1`, the PGE2 EC50 with compound was 0.84 nM. The same measure, in the same setting: for `O=C(Cc1ccc(Br)cc1)Nc1ccccc1Sc1ccccc1` the value was 1.2 nM; for `CSc1nc(Oc2ccc(F)cc2)c2ccccc2n1`, 0.61 nM; for `Cc1cc2ccccc2nc1SCC(=O)NC1CCCCC1`, 2.75 nM.

As to `COc1ccc(OCC(=O)NC(=S)Nc2ccc3c4c(cccc24)CC3)cc1`, the PGE2 EC50 with compound stood at 2.85 nM. In the case of `Cc1ccc(Cn2c(=O)n(Cc3ccco3)c(=O)c3ccccc32)cc1`, the result was active and the PGE2 EC50 with compound turned out to be 0.78 nM. On the same counts, the results for `COc1ccc(-c2cc(C(F)(F)F)nc(N3CCCCC3)n2)cc1OC` are “active” and 0.57 nM.

On to `C=CCOc1ccccc1CNc1ccccc1C`, for which the PGE2 EC50 with compound was found to be 1.42 nM. Still for that read-out and setting: to `CCOC(=O)c1c(NC(=O)c2cccs2)sc2c1CCCC2` belongs 0.81 nM.

Consider `Cc1ccccc1C(=N)c1ccccc1Cc1cccc2ccccc12`, for which the outcome was active and the PGE2 EC50 with compound amounted to 0.33 nM. Regarding `CCn1c2ccc(OC)cc2c2nc3ccccc3nc21`, the PGE2 EC50 with compound is 2.47 nM. Same read-out and setting: to `CCCCn1c(-c2csc3c2CCCC3)n[nH]c1=S` belongs 1.25 nM. Take `O=C(Nc1cccc(Cl)c1N1CCCC1)c1ccc(Br)o1`: the PGE2 EC50 with compound was found to be 1.61 nM. As to `C=CCOc1ccccc1CNc1cccc(F)c1`, the PGE2 EC50 with compound was 0.84 nM. Same read-out and setting: to `Cc1noc(C)c1CSc1ncnc2sc(C)c(C)c12` belongs 1.38 nM; to `CCN(CC)C(=O)CN(c1cc2c(cc1OC)oc1ccccc12)S(=O)(=O)c1ccc(C)cc1`, 1.2 nM; to `Cc1ccc2c(c1)-c1nc3ccccc3cc1C2=NC1CCCCC1`, 1.41 nM. The same measure, in the same setting: to `O=C(Nc1ccccc1Oc1ccccc1)c1ccc(Br)o1` belongs 1.05 nM; to `Cc1cc(N)c2cc(NC(=O)Nc3ccc4nc(C)cc(N)c4c3)ccc2n1`, 2.6 nM. Same read-out and setting: to `CCCc1cc(-c2n[nH]c(=S)n2Cc2ccccc2)cs1` belongs 1.36 nM; to `CCOC(=O)Cc1csc(NC(NC(=O)CC)(C(F)(F)F)C(F)(F)F)n1`, 1.03 nM. For the molecule `COc1ccc2c(c1)c(=O)c(Br)c(C)n2Cc1ccccc1`, the result was active and the PGE2 EC50 with compound turned out to be 0.83 nM. Regarding `CCOc1ccc(-c2nn3c(-c4ccccc4)nnc3s2)cc1`, the PGE2 EC50 with compound stood at 1.04 nM.

Take `Cc1c(NC(=S)NC(=O)c2ccc(-c3ccc(Cl)cc3)o2)cccc1C(=O)O`: the PGE2 EC50 with compound is 0.25 nM. The same measure, in the same setting: for `Cc1cccc(N=N/C(=C\O)C(=O)c2ccc(Br)cc2)c1` the value was 0.31 nM. `Oc1ccccc1-c1nc(N2CCCC2)c2ccccc2n1`: the PGE2 EC50 with compound stood at 0.64 nM. On the same count and under the same terms, for `CSc1nc2ccccc2c(=O)n1Cc1ccc(F)cc1` the value was 0.87 nM. On the same count and under the same terms, for `Cc1ccccc1-n1c(Cn2c(=O)sc3ccccc32)nnc1SCC(=O)N1CCCC1` the value was 1.05 nM. The same measure, in the same setting: for `CCOC(=O)c1c(NC(=O)CC(C)C)sc(C(C)=O)c1C` the value was 1.25 nM; for `CC1=Nc2ccccc2/C1=C/c1sc(=S)n(-c2cccc(C(=O)O)c2)c1O`, 0.4 nM; for `O=C(NCCC1=CCCCC1)c1cccc2c1C(=O)N(C1CCCCC1)C2`, 1.18 nM. Consider `CCC(=O)N1CCN(c2nc(-c3ccccc3)c3c(c2C#N)CCCC3)CC1`, for which the PGE2 EC50 with compound was 0.91 nM.

The record behind these values is PubChem BioAssay AID1421 (Emory University Molecular Libraries Screening Center, 2008).
